US9795570B2, “Modulation of macrophage phenotype by emodin” (University of South Carolina, priority 2016, dated 2017)

Columns and labels:
[1] = system: mouse peritoneal macrophages; assay: Whole genome microarray, macrophages stimulated with LPS/IFNγ; type: cell-based
Method: Three milliliters of 4% Thioglycolate solution was injected intraperitoneally into 8-12 week old C57BL/6 mice. Three days later, macrophages were collected by lavaging the peritoneal cavity with PBS. The cells were then resuspended in DMEM containing 10% FBS. After 2 h, non-adherent cells were washed away with PBS and the macrophages were cultured overnight in serum free DMEM. The macrophages were then treated with DMEM containing IL4 (10 ng/ml, BioAbChem Inc. Ladson, S.C.) or LPS (100 ng/ml, Sigma-Aldrich) and IFNγ (20 ng/ml, BioAbChem Inc) with or without emodin. Emodin was purchased from Nanjing Langze Medicine and Technology Co. Ltd (Nanjing, China) and dissolved in DMSO at a concentration of 10 mg/ml as a stock solution.
Microarray analysis was carried out as described previously, with a few alterations. Macrophages were stimulated with IL4 for 6 h or LPS+IFNγ for 24 h with or without emodin (50 μM). Samples were prepared in biological replicates of 4. Cells were lysed with Qiazol and RNA was extracted using Qiagen's miRNeasy kit. Agilent's 2100 Bioanalyzer was used to determine the quality and quantity of the RNA. […] The RNA was amplified and labeled with Agilent's Low Input Quick Amp Labeling Kit (Agilent) according to the manufacturer's instructions. Labeled RNA was then purified using Qiagen's RNeasy Mini Kit (Qiagen, Valencia, Calif.) and dye incorporation and cRNA yield were assessed. Labeled samples were hybridized to Agilent Whole Mouse Genome Microarrays 8×60K (Agilent) using Agilent's Gene Expression Hybridization Kit (Agilent) according to the manufacturer's instructions. Microarray analysis was performed using an Agilent DNA Microarray Scanner System (Cat. # G2565CA).
For microarray analysis, data was extracted from images with Feature Extractor Software version 10.7.3.1 (Agilent); background correction using detrending algorithms was performed. Subsequently, background-corrected data was uploaded into GeneSpring GX version 11.5.1 for analysis. In this process, data was log 2 transformed, quantile normalized and baseline transformed using the median of all samples. […] Differentially expressed genes were determined by analysis of the data using the Mann-Whitney unpaired statistics. A cutoff p-value of 0.05 and a fold change cutoff value of 2.0 were used to filter the data. Pathway analysis was performed using Ingenuity Pathway Analysis software.

[2] = system: mouse peritoneal macrophages; assay: Phagocytosis assay (FITC-labeled E. coli bioparticles); type: cell-based
Method: Macrophages were seeded into a 96-well plate (2×10^5 cells/well) and were stimulated with IL4 or LPS+IFNγ for 24 h with or without emodin. Phagocytotic activity was measured using a Vybrant Phagocytosis assay kit (Molecular Probes). The medium was removed and the cells were washed with PBS. The fluorescent BioParticle suspension was added to the cells and incubated up to 6 h. After the indicated time, the BioParticle suspension was removed, any extracellular fluorescence was quenched with trypan blue, and the intracellular fluorescence was detected using a Spectramax M5 microplate reader (Molecular Devices, Sunnyvale, Calif.).

EO771 cells = assay: Proliferation, Ki67 staining; type: cell-based, mouse; conditions: 24 h
Method: For Ki67 staining, 4T1 and EO771 tumor cells were seeded into 6 well plates and cultured in SF DMEM overnight. They were then treated with various concentrations of emodin (0-50 μM) for 24 h. The cells were resuspended with trypsin plus EDTA and fixed with 1% paraformaldehyde. The cells were then permeabilized with 0.25% Triton X-100 and stained with anti-Ki67 […] (Abcam). The cells were washed and incubated with goat anti-rabbit Alexa 488 (Invitrogen, Eugene, Oreg.). After washing, the samples were analyzed by flow cytometry using a BD FACS flow cytometer and CXP software version 2.2. Data were collected for 10,000 live events per sample.

4T1 tumors = assay: Survival after surgical removal of primary 4T1 tumors; type: in vivo, BALB/c mice; conditions: 10 mice
Method: A cohort of 30 8-week-old, female BALB/c mice were injected with 2×10^5 4T1 cells suspended in 20 μL PBS in each of their fourth mammary fat pads. The mice were randomly divided into three groups with 10 mice in each group. On day 10, tumors had reached a volume of 100-200 mm^3, and were surgically removed. […] Post-surgical treatment began on day 11. This treatment involved each of the three groups receiving 800 μL daily IP injections of one of the following mixtures: PBS with 2% DMSO by volume (Control group), PBS with 1% DMSO by volume and 1% by volume of 50 mg/mL emodin in DMSO, or PBS with 2% by volume of 50 mg/mL emodin in DMSO. […] Daily IP emodin injections were administered until day 24; from day 25 to day 41, emodin was administered every other day. During the 41 days after the tumor removal, 3 mice in the control group died, while 2 mice and 1 mouse died in low emodin group and high emodin group, respectively (FIG. 16).

Structure (SMILES): Cc1cc(O)c2c(c1)C(=O)c1cc(O)cc(O)c1C2=O [emodin]
- fold reduction of LPS/IFNγ induced expression ([1]; CD86, microarray, emodin 50 μM): 7.74 fold
- fold change of expression under LPS/IFNγ stimulation ([1]; CXCL2, microarray): −10.31 fold
- fold change of expression under LPS/IFNγ stimulation ([1]; CXCL10, microarray): −2.01 fold
- fold reduction of LPS/IFNγ induced expression ([1]; H2-Oa, microarray, emodin 50 μM): 3.85 fold
- fold reduction of LPS/IFNγ induced expression ([1]; H2-Ob, microarray, emodin 50 μM): 6.42 fold
- fold reduction of LPS/IFNγ induced expression ([1]; IL1β, microarray, emodin 50 μM): 13.64 fold
- fold reduction of LPS/IFNγ induced expression ([1]; IL6, microarray, emodin 50 μM): 3.25 fold
- genes changed by emodin in both groups ([1]; LPS/IFNγ and IL4 stimulation, microarray): 1,575 genes
- genes whose expression was changed by emodin in at least one of the conditions ([1]; LPS/IFNγ or IL4 stimulation, microarray): ~6,500 genes
- genes on which emodin had inverse effects under the two different stimuli ([1]; LPS/IFNγ vs IL4, microarray): 86 genes
- fold reduction of LPS/IFNγ induced expression ([1]; MMP2, microarray, emodin 50 μM): 11.86 fold
- fold reduction of LPS/IFNγ induced expression ([1]; MMP9, microarray, emodin 50 μM): 28.87 fold
- fold increase of expression under LPS/IFNγ stimulation ([1]; Mrc1, microarray): 8.72 fold
- fold change of expression under LPS/IFNγ stimulation ([1]; TNFα, microarray): −2.47 fold
- fold reduction of LPS/IFNγ induced expression ([1]; TNFα, microarray, emodin 50 μM): 2.01 fold
- fold increase of expression under LPS/IFNγ stimulation ([1]; YM1, microarray): 2.04 fold
- LPS/IFNγ responsive genes whose induced changes were attenuated ([1]; emodin 50 μM, LPS/IFNγ 24 h): about 31%
- Em + LPS vs. LPS/IFN (gene expression) ([1]; gene CCL2, microarray, LPS/IFNγ 24 h, emodin 50 μM): −12.06
- Em + LPS vs. LPS/IFN (gene expression) ([1]; gene CCL5, microarray, LPS/IFNγ 24 h, emodin 50 μM): −5.41
- Em + LPS vs. LPS/IFN (gene expression) ([1]; gene CD86, microarray, LPS/IFNγ 24 h, emodin 50 μM): −7.74
- Em + LPS vs. LPS/IFN (gene expression) ([1]; gene CXCL2, microarray, LPS/IFNγ 24 h, emodin 50 μM): −2.47
- Em + LPS vs. LPS/IFN (gene expression) ([1]; gene CXCL3, microarray, LPS/IFNγ 24 h, emodin 50 μM): −2.47
- Em + LPS vs. LPS/IFN (gene expression) ([1]; gene CXCL10, microarray, LPS/IFNγ 24 h, emodin 50 μM): −10.31
- Em + LPS vs. LPS/IFN (gene expression) ([1]; gene FPR2, microarray, LPS/IFNγ 24 h, emodin 50 μM): −33.81
- Em + LPS vs. LPS/IFN (gene expression) ([1]; gene H2-Oa, microarray, LPS/IFNγ 24 h, emodin 50 μM): −3.85
- Em + LPS vs. LPS/IFN (gene expression) ([1]; gene H2-Ob, microarray, LPS/IFNγ 24 h, emodin 50 μM): −6.42
- Em + LPS vs. LPS/IFN (gene expression) ([1]; gene IFIT1, microarray, LPS/IFNγ 24 h, emodin 50 μM): −11.94
- Em + LPS vs. LPS/IFN (gene expression) ([1]; gene IL1B, microarray, LPS/IFNγ 24 h, emodin 50 μM): −13.64
- Em + LPS vs. LPS/IFN (gene expression) ([1]; gene IL1RL1, microarray, LPS/IFNγ 24 h, emodin 50 μM): −10.78
- Em + LPS vs. LPS/IFN (gene expression) ([1]; gene IL6, microarray, LPS/IFNγ 24 h, emodin 50 μM): −3.25
- Em + LPS vs. LPS/IFN (gene expression) ([1]; gene IL12A, microarray, LPS/IFNγ 24 h, emodin 50 μM): −4.93
- Em + LPS vs. LPS/IFN (gene expression) ([1]; gene IL12B, microarray, LPS/IFNγ 24 h, emodin 50 μM): 2.47
- Em + LPS vs. LPS/IFN (gene expression) ([1]; gene IRF5, microarray, LPS/IFNγ 24 h, emodin 50 μM): −2.11
- Em + LPS vs. LPS/IFN (gene expression) ([1]; gene IRF7, microarray, LPS/IFNγ 24 h, emodin 50 μM): −4.20
- Em + LPS vs. LPS/IFN (gene expression) ([1]; gene MMP2, microarray, LPS/IFNγ 24 h, emodin 50 μM): −11.86
- Em + LPS vs. LPS/IFN (gene expression) ([1]; gene MMP9, microarray, LPS/IFNγ 24 h, emodin 50 μM): −28.87
- Em + LPS vs. LPS/IFN (gene expression) ([1]; gene MYH3, microarray, LPS/IFNγ 24 h, emodin 50 μM): −7.76
- Em + LPS vs. LPS/IFN (gene expression) ([1]; gene Mrc1, microarray, LPS/IFNγ 24 h, emodin 50 μM): 8.72
- Em + LPS vs. LPS/IFN (gene expression) ([1]; gene NOS2, microarray, LPS/IFNγ 24 h, emodin 50 μM): −3.77
- Em + LPS vs. LPS/IFN (gene expression) ([1]; gene PTGS2, microarray, LPS/IFNγ 24 h, emodin 50 μM): −3.99
- Em + LPS vs. LPS/IFN (gene expression) ([1]; gene RASGRP1, microarray, LPS/IFNγ 24 h, emodin 50 μM): −8.52
- Em + LPS vs. LPS/IFN (gene expression) ([1]; gene SELL, microarray, LPS/IFNγ 24 h, emodin 50 μM): −10.45
- Em + LPS vs. LPS/IFN (gene expression) ([1]; gene SOCS1, microarray, LPS/IFNγ 24 h, emodin 50 μM): −5.34
- Em + LPS vs. LPS/IFN (gene expression) ([1]; gene TLR4, microarray, LPS/IFNγ 24 h, emodin 50 μM): −4.71
- Em + LPS vs. LPS/IFN (gene expression) ([1]; gene TNF, microarray, LPS/IFNγ 24 h, emodin 50 μM): −2.01
- inhibition of bioparticle uptake ([2]; IL4 or LPS/IFNγ stimulated macrophages, emodin 50 μM 24 h): ~2 fold
- phagocytic activity of naïve cells ([2]; emodin alone, 6 h time point): increase phagocytic activity
- concentrations with no significant effect on cell proliferation (EO771 cells): less than 50 μM
- mice that died during the 41 days after tumor removal (4T1 tumors; high emodin dose group, approximately 40 mg/kg IP): 1 mouse
- mice that died during the 41 days after tumor removal (4T1 tumors; low emodin dose group, approximately 20 mg/kg IP): 2 mice
